{"source": "ChEMBL document CHEMBL1144396", "about": "(J Med Chem, 2005)"}
{"molecular_target": "T1, Equilibrative nucleoside transporter 1 (Homo sapiens, UniProt Q99808)", "T1 sequence (Q99808 whole entry)": "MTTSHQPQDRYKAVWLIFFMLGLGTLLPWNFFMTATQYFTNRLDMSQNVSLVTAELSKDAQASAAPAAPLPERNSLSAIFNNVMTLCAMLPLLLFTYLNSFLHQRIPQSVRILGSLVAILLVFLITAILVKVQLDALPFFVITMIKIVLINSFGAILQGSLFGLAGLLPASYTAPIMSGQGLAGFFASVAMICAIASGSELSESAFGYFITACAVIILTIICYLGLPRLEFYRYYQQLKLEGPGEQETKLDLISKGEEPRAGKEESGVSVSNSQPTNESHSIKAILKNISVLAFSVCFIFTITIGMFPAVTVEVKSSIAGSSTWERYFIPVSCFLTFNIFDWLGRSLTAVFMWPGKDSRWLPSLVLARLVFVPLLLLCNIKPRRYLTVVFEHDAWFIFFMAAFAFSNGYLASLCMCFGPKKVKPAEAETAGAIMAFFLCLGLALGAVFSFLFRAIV", "test": "Inhibition of [3H]NBTI binding to equilibrative nucleoside transport protein 1 (ENT1) in human erythrocyte membranes", "type": "cell membranes", "units": {"Ki": "nM", "Inhibition": "%"}}
{"compound": "CCCNc1nc2c(NC3CCCC3)ncnc2n1[C@@H]1O[C@H](CO)[C@@H](O)[C@H]1O", "Ki": 97}
{"compound": "O=[N+]([O-])c1ccc(CSc2ncnc3c2nc(N2CCCC2)n3Cc2ccccc2)cc1", "Ki": 1520}
{"compound": "O=[N+]([O-])c1ccc(CSc2ncnc3c2nc(N2CCOCC2)n3Cc2ccccc2)cc1", "Ki": 51}
{"compound": "OC[C@H]1OC(n2c(NC3CC3)nc3c(SCc4ccccc4)ncnc32)[C@H](O)[C@@H]1O", "note": "(stereo partly drawn)", "Ki": 3}
{"compound": "CCCCNc1nc2c(SCc3ccccc3)ncnc2n1C1O[C@H](CO)[C@@H](O)[C@H]1O", "note": "(stereo partly drawn)", "Ki": 5.4}
{"compound": "OC[C@H]1OC(n2c(NC3CCCCC3)nc3c(SCc4ccccc4)ncnc32)[C@H](O)[C@@H]1O", "note": "(stereo partly drawn)", "Ki": 0.94}
{"compound": "OC[C@H]1OC(n2c(N3CCCCC3)nc3c(SCc4ccccc4)ncnc32)[C@H](O)[C@@H]1O", "note": "(stereo partly drawn)", "Ki": 744}
{"compound": "OC[C@H]1OC(n2c(N3CCCC3)nc3c(SCc4ccccc4)ncnc32)[C@H](O)[C@@H]1O", "note": "(stereo partly drawn)", "Ki": 410}
{"compound": "CCNc1nc2c(SCc3ccccc3)ncnc2n1C1O[C@H](CO)[C@@H](O)[C@H]1O", "note": "(stereo partly drawn)", "Ki": 9.5}
{"compound": "CCCNc1nc2c(SCc3ccccc3)ncnc2n1C1O[C@H](CO)[C@@H](O)[C@H]1O", "note": "(stereo partly drawn)", "Ki": 5.3}
{"compound": "CNc1nc2c(SCc3ccccc3)ncnc2n1C1O[C@H](CO)[C@@H](O)[C@H]1O", "note": "(stereo partly drawn)", "Ki": 28}
{"compound": "CCCCCNc1nc2c(SCc3ccccc3)ncnc2n1C1O[C@H](CO)[C@@H](O)[C@H]1O", "note": "(stereo partly drawn)", "Ki": 2.3}
{"compound": "OC[C@H]1OC(n2c(NC3CCCC3)nc3c(SCc4ccccc4)ncnc32)[C@H](O)[C@@H]1O", "note": "(stereo partly drawn)", "Ki": 0.64}
{"compound": "CCCCCCNc1nc2c(SCc3ccccc3)ncnc2n1C1O[C@H](CO)[C@@H](O)[C@H]1O", "note": "(stereo partly drawn)", "Ki": 3.7}
{"compound": "CCC(C)CNc1nc2c(SCc3ccccc3)ncnc2n1C1O[C@H](CO)[C@@H](O)[C@H]1O", "note": "(stereo partly drawn)", "Ki": 3.6}
{"compound": "OC[C@H]1OC(n2c(N3CCOCC3)nc3c(SCc4ccccc4)ncnc32)[C@H](O)[C@@H]1O", "note": "(stereo partly drawn)", "Inhibition": 33}
{"compound": "OC[C@H]1O[C@@H](n2cnc3c(SCc4ccccc4)ncnc32)[C@H](O)[C@@H]1O", "note": "[6-BENZYLTHIOINOSINE]", "Ki": 53}
{"compound": "OC[C@H]1O[C@@H](n2cnc3c(NC4CCCC4)ncnc32)[C@H](O)[C@@H]1O", "note": "[N6-CYCLOPENTYLADENOSINE]", "Ki": 1100}
